According to patent US8846951B2 (AbbVie Inc., priority 2009, dated 2014):
Like-named read-outs stand apart in the source and are kept apart here.

Tests used:
[1] = biological target: T1, human serotonin 5-HT2c receptor (Homo sapiens, UniProt P28335); assay: Human 5-HT2C receptor radioligand binding assay (agonist site, [125I]DOI); conditions: 5-HT2c agonist site; transfected CHO cell membranes; 0.2 nM [125I](±)DOI
T1 construct: expressed in transfected cells; host or cells: CHO cells (membrane homogenates)
T1 sequence (P28335 33-458): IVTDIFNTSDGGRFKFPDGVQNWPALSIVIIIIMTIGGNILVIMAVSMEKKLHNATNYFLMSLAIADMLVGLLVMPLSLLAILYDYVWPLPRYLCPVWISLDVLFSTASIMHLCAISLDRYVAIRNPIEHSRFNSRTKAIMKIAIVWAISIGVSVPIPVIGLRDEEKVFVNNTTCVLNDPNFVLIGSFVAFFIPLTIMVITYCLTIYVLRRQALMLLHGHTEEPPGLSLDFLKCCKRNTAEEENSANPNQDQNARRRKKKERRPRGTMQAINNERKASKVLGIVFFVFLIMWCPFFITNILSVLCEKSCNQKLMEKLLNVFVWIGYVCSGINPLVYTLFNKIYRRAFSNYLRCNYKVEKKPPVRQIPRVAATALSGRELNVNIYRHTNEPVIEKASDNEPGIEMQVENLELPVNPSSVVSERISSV
Experimental: (i) Human 5-HT2C Receptor Radioligand Binding Assay
Affinity of compounds for the agonist site of the […], receptor in transfected CHO cells was determined in a radioligand binding assay essentially as described by Bryant, H. U., et al., Life Sciences (1996) 59(15), 1259-1268.

5HT2B receptors = biological target: T2, 5HT2B receptors (Homo sapiens, UniProt P41595); assay: Human 5-HT2B functional high throughput screening assay in CHO-K1 cells (calcium flux); assay type: cell-based; conditions: for EC50: CHO-K1 cells, calcium flux
T2 construct: expressed in transfected cells; host or cells: CHO-K1 cells
How it was run: (§1)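 Frozen CHO-K1 cells overexpressing the receptor were plated, serum-starved overnight, then loaded with Ca4 dye plus 2.5 mM probenecid for 60 min at room temperature. FLIPR fluorescence (ex 480/em 530 nm, 25 °C) after compound addition was normalized to serotonin; EC50 and Emax came from 4-parameter logistic fits.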

5HT2C receptors [2] = biological target: T3, 5HT2C receptors (Homo sapiens, UniProt P28335); assay: Human 5-HT2C functional assay in CHO-K1 cells (96-well, calcium, FLIPR); assay type: cell-based; parameters: expressed in transfected cells; conditions: 5-HT2c agonist activity, CHO-K1 cells stably transfected
T3 sequence (P28335 33-458): T1 sequence (P28335 33-458)
Experimental: (iv) Human 5-HT2C Functional Assay in CHO-K1 Cells
Functional activity was determined by testing the effect of the compounds on intracellular calcium levels in CHO-K1 cells stably transfected with the human 5-HT2C receptor. Cells were seeded into 96-well plates at 60,000 cells/well and grown overnight in tissue culture medium (UltraCHO™ (Lonza), containing 1% dFCS, 250 μg/mL Zeocin, 400 μg/mL Geneticin) at 37° C. and 5% CO2. Growth medium was replaced by medium without dFCS for overnight incubation. Cells were loaded with a fluorescent calcium-sensitive dye in the presence of probenicid according to the manufacturer's protocol (FLIPR Ca4 Assay kit, Molecular Devices). Serial compound dilutions (final concentrations 10^−10 to 10^−5 M) were added to the cells and the maximum calcium response was determined using a FLIPR instrument (Molecular Devices). Concentration-response curves were fitted using a four-parameter logistic equation (GraphPad Prism). The concentration at which the compound exerts half its maximal effect is named the ‘effective concentration 50’ or ‘EC50’ and is listed in Table 5.

5HT2C receptors [3] = biological target: T3, 5HT2C receptors; assay: Human 5-HT2C functional high throughput screening assay in CHO-K1 cells (calcium flux); assay type: cell-based; parameters: expressed in transfected cells; host or cells: CHO-K1 cells; conditions: for Emax: 5-HT2C, maximum functional response as percentage relative to the effect of serotonin; for EC50: CHO-K1 cells, calcium flux
How it was run: as §1

h-5-HT6 receptor = biological target: T4, h-5-HT6 receptor (Homo sapiens, UniProt P50406); assay: Human 5-HT6 receptor radioligand binding assay (HEK293 membranes, [3H]-LSD)
T4 construct: expressed in transfected cells; host or cells: HEK293 cells (membranes)
Experimental: (v) Human 5-HT6 Receptor Radioligand Binding Assay
Preparation of Membranes by Ultrasonic Treatment and Differential Centrifugation
Cells from stable clonal cell lines expressing the corresponding receptor (5-HT6) were washed with PBS (without Ca^++, Mg^++) and harvested in PBS with 0.02% EDTA. The cells were collected by centrifugation at 500 g for 10 minutes at 4° C., washed with PBS and centrifuged (500 g, 10 minutes at 4° C.). The pellets were stored at −80° C. until use. For membrane preparation, the thawed cell pellet was resuspended in ice-cold sucrose buffer (0.25 M sucrose, 10 mM HEPES (pH 7.4), 1 mM phenylmethylsulfonyl fluoride (PMSF) in DMSO, 5 μg/ml Pepstatin-A, 3 mM EDTA, 0.025% Bacitracin) and homogenized with a Branson Sonifier W-250 (Settings: Timer 4; Output Control 3; Duty Cycle constant; 2 to 3 cycles). Cell disruption was checked with the aid of a microscope. Remaining unbroken cells were pelleted at 1,000 g for 10 minutes at 4° C. The sucrose buffer supernatant was then centrifuged at 60,000 g for 1 hour at 4° C. (Beckman Ultracentrifuge XL 80). The pellet was resuspended in 30 mL of ice-cold Tris buffer (20 mM TRIS (pH 7.4), 5 μg/mL Pepstatin A, 0.1 mM PMSF, 3 mM EDTA) by pipetting through a 10 mL serological pipette and centrifuged for 1 hour at 4° C. at 60,000 g. A final resuspension was performed in a small volume of ice-cold Tris buffer (see above) by pressing through a serological pipette followed by ultrasonic treatment with a Branson Sonifier W-250 (Settings: Timer 1; Output Control 3; Duty Cycle constant; 1 cycle). Protein concentration was determined (BCA-Kit; Pierce) and aliquots stored at −80° C. or in liquid nitrogen for long-term storage.
Receptor Binding Experiments
All receptor binding experiments were carried out in the corresponding assay buffer in a total volume of 200 μL in the presence of various concentrations of test compound (10^−5 M to 10^−9 M, tenfold serial dilution, duplicate determinations). The assays were terminated by filtration on polyethylenimine (PEI 0.1% or 0.3%) presoaked Packard Unifilter Plates (GF/C or GF/B) with a Tomtec MachIII U 96 well-plate harvester. After the plates had been dried for 2 hours at 55° C. in a drying chamber scintillation cocktail (BetaPlate Scint; PerkinElmer) was added. Radioactivity was measured in a Microbeta Trilux two hours after the addition of the scintillation mixture.
5-HT6 Receptor Binding Assay
HEK293 cells stably expressing the h-5-HT6 receptor (NCBI Reference Sequence XM 001435) were cultured in RPMI1640 medium supplemented with 25 mM HEPES, 10% fetal calf serum and 1-2 mM glutamine. The membrane preparation was performed as described above. […] On the day of the assay, the membranes were thawed, diluted in assay buffer (50 mM Tris-HCl, 5 mM CaCl2, 0.1% ascorbic acid, 10 μM pargyline, pH 7.4) to a concentration of 8 μg protein/assay and homogenized by gentle vortexing. […] Non-specific binding was defined with 1 μM methiothepin. The binding reaction was carried out for 3.5 hours at room temperature. During the incubation, the plates were shaken on a plate shaker at 100 rpm and terminated by filtration on Packard Unifilter GF/C (0.1% PEI) plates, followed by 2 wash cycles with ice-cold 50 mM Tris-HCl, 5 mM CaCl2.
Data derived from liquid scintillation counting were analyzed by iterative non-linear regression analysis with the use of the Statistical Analysis System (SAS): a program similar to “LIGAND” as described by Munson and Rodbard (Anal. Biochem. 1980, 107, 220-239). Fitting was performed according to formulae described by Feldman (Anal. Biochem. 1972, 48, 317-338). IC50 and Ki values were expressed as geometrical mean.

5HT2C receptors [4] = biological target: T3, 5HT2C receptors; assay: Human 5-HT2C functional assay in 1321N1 cells (intracellular calcium, FLIPR); assay type: cell-based; parameters: expressed in transfected cells; host or cells: 1321N1 cells; conditions: 5-HT2c agonist activity, maximum calcium response
How it was run: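 1321N1 cells stably expressing human 5-HT2C were serum-starved overnight and loaded with Fluo-4 AM and 1% probenecid. Compounds (10^−10 to 10^−5 M) were tested alone or with 10^−9 M serotonin, and peak calcium was read by FLIPR. EC50 from four-parameter logistic fit.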

[5] = 5-HT2B, maximum functional response as percentage relative to the effect of serotonin
[6] = 5-HT2B agonist activity, read-out: EC50
[7] = 5-HT2C agonist activity, read-out: EC50

T2 sequence (P41595 whole entry): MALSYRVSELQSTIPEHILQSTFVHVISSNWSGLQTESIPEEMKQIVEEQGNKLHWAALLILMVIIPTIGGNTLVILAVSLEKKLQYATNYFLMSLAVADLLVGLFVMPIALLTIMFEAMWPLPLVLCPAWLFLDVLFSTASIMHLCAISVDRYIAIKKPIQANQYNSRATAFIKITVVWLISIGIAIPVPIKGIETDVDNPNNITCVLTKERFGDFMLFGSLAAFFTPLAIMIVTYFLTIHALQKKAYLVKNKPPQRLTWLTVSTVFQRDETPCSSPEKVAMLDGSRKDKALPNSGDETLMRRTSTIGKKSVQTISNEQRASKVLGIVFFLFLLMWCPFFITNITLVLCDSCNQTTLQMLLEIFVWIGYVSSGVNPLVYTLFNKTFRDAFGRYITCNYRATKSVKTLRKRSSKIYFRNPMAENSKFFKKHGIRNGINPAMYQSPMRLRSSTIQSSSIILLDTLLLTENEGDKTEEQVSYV
T4 sequence (P50406 whole entry): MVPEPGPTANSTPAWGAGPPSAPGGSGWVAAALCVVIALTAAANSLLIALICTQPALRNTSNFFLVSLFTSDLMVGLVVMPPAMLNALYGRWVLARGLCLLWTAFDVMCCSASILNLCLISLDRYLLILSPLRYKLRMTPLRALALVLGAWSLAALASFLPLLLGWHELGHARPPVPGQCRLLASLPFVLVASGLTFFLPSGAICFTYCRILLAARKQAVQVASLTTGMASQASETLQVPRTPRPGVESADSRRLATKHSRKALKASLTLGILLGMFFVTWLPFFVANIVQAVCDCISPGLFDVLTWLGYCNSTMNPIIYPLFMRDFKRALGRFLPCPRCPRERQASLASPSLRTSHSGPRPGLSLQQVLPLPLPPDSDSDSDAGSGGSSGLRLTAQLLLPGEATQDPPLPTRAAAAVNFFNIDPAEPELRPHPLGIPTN

SMILES | Ki [1] [nM] | Emax (5HT2B receptors; [5]) | EC50 (5HT2B receptors; EC50, 5-HT2B agonist activity) [nM] | EC50 (5HT2C receptors [2]) [nM] | Emax (5HT2C receptors [3]; CHO-K1) [%] | EC50 (5HT2C receptors [3]; EC50, 5-HT2C agonist activity) [nM] | EC50 (5HT2B receptors; [6]) [nM] | EC50 (5HT2C receptors [3]; [7]) [nM] | Emax (5HT2C receptors [3]; CHO-K1, read-out: Emax) [%] | Ki (h-5-HT6 receptor) [nM] | EC50 (5HT2C receptors [4]) [nM] | Emax (5HT2B receptors; CHO-K1) [%] | Emax (5HT2C receptors [3]) [%]
CN1C[C@H]2CNC(=O)c3cc(Cl)ccc3[C@@H]2C1 (relative stereo) [Example 53, Trans-8-chloro-2-methyl-1,2,3,3a,4,5-hexahydrobenzo[e]pyrrolo[3,4-c]azepin-6(10bH)-one] | 8.1 | inactive | > 10000 | 2.93 | 100 | 20 | – | – | – | – | – | – | –
O=C1NC[C@@H]2CN(Cc3ccccc3)C[C@H]2c2cc(F)ccc21 (relative stereo) [Example 63, Trans-2-benzyl-9-fluoro-1,2,3,3a,4,5-hexahydrobenzo[c]pyrrolo[3,4-e]azepin-6(10bH)-one] | 140 | inactive | – | 145 | – | – | > 10000 | 200 | 120 | – | – | – | –
O=C1NC[C@@H]2CNC[C@H]2c2cc(F)ccc21 (relative stereo) [Example 64, Trans-9-fluoro-1,2,3,3a,4,5-hexahydrobenzo[c]pyrrolo[3,4-e]azepin-6(10bH)-one] | 1000 | – | – | 17 | – | – | – | – | – | – | – | – | –
CN1C[C@H]2CN(S(=O)(=O)c3ccccc3)Cc3ccccc3[C@H]2C1 (relative stereo) [Example 72, Cis-2-methyl-5-(phenylsulfonyl)-1,2,3,3a,4,5,6,10b-octahydrobenzo[c]pyrrolo[3,4-e]azepine] | 65 | – | – | – | – | – | – | – | – | 71.7 | 51.9 | – | –
CN1C[C@H]2CNC(=O)c3cc(-c4ccccc4)ccc3[C@@H]2C1 (relative stereo) [Example 86, Trans-2-methyl-8-phenyl-1,2,3,3a,4,5-hexahydrobenzo[e]pyrrolo[3,4-c]azepin-6(10bH)-one] | – | inactive | – | 3.7 | – | – | > 10000 | 7 | 110 | – | – | – | –
CN1C[C@H]2CNC(=O)c3ccc(F)cc3[C@@H]2C1 (relative stereo) [Example 90, Trans-9-fluoro-2-methyl-1,2,3,3a,4,5-hexahydrobenzo[e]pyrrolo[3,4-c]azepin-6(10bH)-one] | – | inactive | > 10000 | 14.5 | 85 | 300 | – | – | – | – | – | – | –
CN1C[C@H]2CNC(=O)c3cc(F)ccc3[C@@H]2C1 (relative stereo) [Example 91, Trans-8-fluoro-2-methyl-1,2,3,3a,4,5-hexahydrobenzo[e]pyrrolo[3,4-c]azepin-6(10bH)-one] | – | – | 3000 | 1.5 | > 120 | 20 | – | – | – | – | – | 25 | –
c1ccc(CN2C[C@@H]3CCOc4ccccc4[C@H]3C2)cc1 (relative stereo) [Example 93, Trans-2-benzyl-2,3,3a,4,5,10b-hexahydro-1H-[1]benzoxepino[4,5-c]pyrrole] | – | inactive | – | 4.4 | – | – | > 10000 | 100 | > 120 | – | – | – | –
c1ccc2c(c1)OCC[C@H]1CNC[C@H]21 (relative stereo) [Example 94, Trans-2,3,3a,4,5,10b-hexahydro-1H-[1]benzoxepino[4,5-c]pyrrole] | – | – | 500 | 124 | > 120 | 30 | – | – | – | – | – | 45 | –
Clc1ccc2c(c1)[C@H]1CNC[C@@H]1CCO2 (relative stereo) [Example 95, Trans-9-chloro-2,3,3a,4,5,10b-hexahydro-1H-[1]benzoxepino[4,5-c]pyrrole] | – | – | – | 1.7 | > 120 | – | – | – | – | – | – | 35 | –
c1ccc2c(c1)OCC[C@H]1CNC[C@@H]21 (relative stereo) [Example 96, Cis-2,3,3a,4,5,10b-hexahydro-1H-[1]benzoxepino[4,5-c]pyrrole] | 380 | – | 1000 | 36.9 | 120 | 200 | – | – | – | – | – | 50 | –
O=C1NC[C@@H]2CNC[C@H]2c2cccc(F)c21 (single isomer, unassigned) [Example 62, Trans-7-fluoro-1,2,3,3a,4,5-hexahydrobenzo[e]pyrrolo[3,4-c]azepin-6(10bH)-one] | 8.2 | 80% | 700 | 0.3 | – | 1.2 | – | – | – | – | – | – | >120
